# Experimental data published in patent US4835160A, “Derivatives of pyridoindole, having anti-tumor properties” (Sanofi, priority 1986, dated 1989).
# Tests used:
# [1] = tested on: leukemia P 388; test: Test of leukemia P 388; IP/IP, D1-5; format: in vivo, CDF1 hybrid mice; settings: D1-D5; for Number of survivors: day D30; for T/C %: survival time
# Procedure, shortened: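 CDF1 hybrid mice received 10^6 P 388 cells intraperitoneally, then compound in distilled water by intraperitoneal route daily D1-D5, 10 mice per group, 5-fluorouracil as positive control. Activity judged as T/C survival time versus untreated controls, survivors counted at D30; T/C ≤85% or day 5 minus day 1 weight change ≤ −4 g counted as toxic.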
# [2] = tested on: leukemia tumour line L 1210; test: In vitro cytotoxic activity on leukemia tumour line L 1210; format: cell-based; settings: L 1210, 48 hours contact, 37° C.; read-out: I D 50 (concentration which inhibits the proliferation of the cells by 50%)
# Procedure, shortened: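 Exponentially growing L 1210 leukemia cells were exposed to increasing compound concentrations at 37 °C under CO2 and counted every 24 h. ID50, the concentration inhibiting proliferation by 50%, was calculated after 48 h contact.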
# [3] = tested on: leukemia P 388; test: Test for leukemia P 388 IP/D1 IV; format: in vivo, CDF1 hybrid mice; settings: for Number of survivors: day D30; for T/C %: survival time
# Method: (§1) The antitumour activity was tested in vivo on various tumours inoculated in various ways according to the following general protocol:
# (§2) All the male or female mice are inoculated on day D0 with a known quantity of viable tumour cells for ascitic tumours or with a known tumour fragment for solid tumours.
# (§3) They are then distributed into various groups. Each group, corresponding to the animals treated by the product under test, is made up of 10 mice. The product under test is dissolved in distilled water and it is administered n times (Dx-Dy), n, y, and x varying according to the protocol chosen, at the rate of 0.1 ml of solution per 10 g by weight of mice treated and at specific doses for each protocol.
# (§4) The "negative control" group, corresponding to the animals which are not treated by the product, contains 2√N animals, N being equal to or greater than the total number of mice treated by the product in the same experiment.
# (§5) Finally, the tests can also be carried out at the same time as the study of a group called "positive control", of ten animals, which is treated by a molecule, known for its antitumour activity and which can vary according to the protocol chosen, in the same conditions as the groups treated by the product under test.
# (§6) The antitumour activity is evaluated, in the case of ascitic tumours, by considering the increase in the survival time of the animals treated in comparison to that of the animals in the "negative control" group, according to the formula: [formula]
# (§7) Also, a product is considered as toxic at the dose studied when this T/C value is equal to or less than 85%. In addition, a product is also considered as toxic at the dose studied when the weight variation, expressed in grams and calculated by the formula: […]
# (§8) The tests are carried out with CDF1 hybrid mice inoculated by intraperitoneal route with 10^6 leukemia cells from the P 388 line. The compound under test is administered for 5 successive days (D1-D5) by intraperitoneal route. The positive control for the test is 5-fluorouracile which is administered in the same conditions. The number of surviving animals is evaluated on day D30.
# (f) Test for leukemia P 388 IP/D1 IV (GERAN et al., Cancer Chemother., 1972, 2, 07-57).
# The test is carried out according to the same protocol as that described for test (a), the compound under test being administered by intravenous route only on day D1.
# [4] = tested on: colic adenocarcinoma 38; test: Test for colic adenocarcinoma 38, SC/D1 IV; format: in vivo, BDF1 hybrid mice; settings: 100 mg/kg IV
# Method: as §1, §2, §3, §4
# (§9) the antitumour activity is evaluated, in the case of solid tumours, by considering the reduction in the average tumour volume of the treated animals in comparison with the animals of the "negative control" group, according to the formula: [formula]
# (§10) A value for T/C of less than 42% indicates an activity for the product at the studied dose.
# (h) Test for colic adenocarcinoma 38, SC/D1 IV. (GERAN et al., Cancer Chemother., 1972, 2, 07-57).
# (§11) The tests are carried out with BDF1 hybrid mice inoculated by subcutaneous route with a standardized tumour fragment of 3 mm^3. The compound under test is administered by intravenous route only on day D1.
# The number of surviving animals is evaluated on day D38.
# [5] = tested on: leukemia P388; test: Test for leukemia P388, IP/IP, D1; format: in vivo, CDF1 hybrid mice; settings: for Number of survivors: day D30; for T/C %: survival time
# Method: as §1, §2, §3, §4, §5, §6, §7, §8
# (b) Test for Leukemia P388, IP/IP, D1 (GERAN et al. Cancer chemother., 1972, 2, 07-57).
# The test is carried out according to the preceding protocol, the compound under test being administered only on day D1.
# [6] = tested on: colic adenocarcinoma 38; test: Test for colic adenocarcinoma 38, SC/D2,9 IV; format: in vivo, BDF1 hybrid mice; design: Average tumour volume at D32: unit not given beside the values; settings: D2 and D9; for Number of survivors: day D32; for T/C % at D32: tumour volume
# Method: as §1, §2, §3, §4, §9, §10, §11
# (i) Test for colic adenocarcinoma 38, SC/D2,9 IV (GERAN et al., Cancer Chemother., 1972, 2, 07-57).
# This test is carried out according to the protocol described for test (h), the compound under test being administered by intravenous route on day D2 then on day D9.
# The number of surviving animals is evaluated on day D32.
compound,measurement,setting,value
"CCN(CC)CCCNc1ncc(C)c2c1c1cc(O)ccc1n2C [Derivative No. 12, 1-(3-diethylaminopropylamino)-4,5-dimethyl-8-hydroxy-5H-pyrido[4,3-b]indole]",Median day of survival,[1]; 1.25 mg/kg IP,16.7 days
same,Variation by weight,[1]; 1.25 mg/kg IP,-0.5 g
same,Number of survivors,[1]; 1.25 mg/kg IP,1/10
same,T/C %,[1]; 1.25 mg/kg IP,152%
same,Median day of survival,[1]; 2.5 mg/kg IP,18.0 days
same,Variation by weight,[1]; 2.5 mg/kg IP,-1.2 g
same,Number of survivors,[1]; 2.5 mg/kg IP,0/10
same,T/C %,[1]; 2.5 mg/kg IP,164%
same,Median day of survival,[1]; 5 mg/kg IP,19.00 days
same,Variation by weight,[1]; 5 mg/kg IP,-1.9 g
same,Number of survivors,[1]; 5 mg/kg IP,2/10
same,T/C %,[1]; 5 mg/kg IP,173%
same,Median day of survival,[1]; 10 mg/kg IP,19.3 days
same,Number of survivors,[1]; 10 mg/kg IP,0/10
same,T/C %,[1]; 10 mg/kg IP,176%
same,Median day of survival,[1]; 20 mg/kg IP,9.7 days
same,Variation by weight,[1]; 20 mg/kg IP,-5.9 g
same,Number of survivors,[1]; 20 mg/kg IP,0/10
same,T/C %,[1]; 20 mg/kg IP,88%
same,IC50,[2],35 nM
same,Median day of survival,[3]; 50 mg/kg IV,19.0 days
same,Variation by weight,[3]; 50 mg/kg IV,-0.7 g
same,Number of survivors,[3]; 50 mg/kg IV,0/10
same,T/C %,[3]; 50 mg/kg IV,174%
same,Median day of survival,[3]; 100 mg/kg IV,24.3 days
same,Variation by weight,[3]; 100 mg/kg IV,-1.6 g
same,Number of survivors,[3]; 100 mg/kg IV,1/10
same,T/C %,[3]; 100 mg/kg IV,223%
same,Average tumour volume at D38,[4],3.24
same,Number of survivors,[4]; day D38,10/10
same,T/C % at D38,[4]; tumour volume,36%
same,Median day of survival,[5]; 5 mg/kg IP,15.87 days
same,Variation by weight (g),[5]; 5 mg/kg IP,+0.1 g
same,Number of survivors,[5]; 5 mg/kg IP,0/10
same,T/C %,[5]; 5 mg/kg IP,139%
same,Median day of survival,[5]; 10 mg/kg IP,17.75 days
same,Variation by weight,[5]; 10 mg/kg IP,-0.6 g
same,Number of survivors,[5]; 10 mg/kg IP,0/10
same,T/C %,[5]; 10 mg/kg IP,156%
same,Median day of survival,[5]; 20 mg/kg IP,20.75 days
same,Variation by weight,[5]; 20 mg/kg IP,-1.2 g
same,Number of survivors,[5]; 20 mg/kg IP,0/10
same,T/C %,[5]; 20 mg/kg IP,182%
same,Median day of survival,[5]; 40 mg/kg IP,23.0 days
same,Variation by weight,[5]; 40 mg/kg IP,-6.2 g
same,Number of survivors,[5]; 40 mg/kg IP,1/10
same,T/C %,[5]; 40 mg/kg IP,202%
same,Average tumour volume at D32,[6]; 50 mg/kg IV,1.38
same,Number of survivors,[6]; 50 mg/kg IV,10/10
same,T/C % at D32,[6]; 50 mg/kg IV,18%
same,Average tumour volume at D32,[6]; 75 mg/kg IV,0.97
same,Number of survivors,[6]; 75 mg/kg IV,10/10
same,T/C % at D32,[6]; 75 mg/kg IV,13%
